Reference: the supplement of paper PMC5908809

Assays:
Assay in all cases: relative IC50 (inflection point of fitted viability curve, relative to fitted max inhibition); higher = less sensitive
Conditions in all cases: 72 h
NK-YS (IL-2 2.5 ng/mL) = tested on: NK-YS (IL-2 2.5 ng/mL)
Procedure: (§1)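 Drug sensitivity and resistance testing: 5 concentrations over a 10,000-fold range, 72 h at 37 °C, viability by CellTiter-Glo normalised to DMSO and benzethonium chloride controls. IC50 is the inflection point of a logistic fit (min fixed at 0, max fitted), so it is relative to the fitted maximal inhibition. Kept only where fitted max inhibition is at least 50%.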

SNK-6 (IL-2 2.5 ng/mL) = tested on: SNK-6 (IL-2 2.5 ng/mL)
Procedure: as §1

[1] = tested on: normal primary NK cells, pool 1 (3 donors) (IL-2 2.5 ng/mL)
Procedure: as §1

[2] = tested on: normal primary NK cells, pool 1 (3 donors), resting (IL-2 0 ng/mL)
Procedure: as §1

[3] = tested on: normal primary NK cells, pool 2 (3 donors) (IL-2 2.5 ng/mL)
Procedure: as §1

DERL-7 (IL-2 2.5 ng/mL) = tested on: DERL-7 (IL-2 2.5 ng/mL)
Procedure: as §1

KAI3 (IL-2 2.5 ng/mL) = tested on: KAI3 (IL-2 2.5 ng/mL)
Procedure: as §1

KHYG-1 (IL-2 2.5 ng/mL) = tested on: KHYG-1 (IL-2 2.5 ng/mL)
Procedure: as §1

NK-92 (IL-2 2.5 ng/mL) = tested on: NK-92 (IL-2 2.5 ng/mL)
Procedure: as §1

NKL (IL-2 2.5 ng/mL) = tested on: NKL (IL-2 2.5 ng/mL)
Procedure: as §1

YT (IL-2 2.5 ng/mL) = tested on: YT (IL-2 2.5 ng/mL)
Procedure: as §1

IMC-1 (IL-2 20 ng/mL) = tested on: IMC-1 (IL-2 20 ng/mL)
Procedure: as §1

[4] = tested on: normal primary NK cells, pool 3 (3 donors) (IL-2 2.5 ng/mL)
Procedure: as §1

SMILES | relative IC50 (NK-YS (IL-2 2.5 ng/mL)) [µM] | relative IC50 (SNK-6 (IL-2 2.5 ng/mL)) [µM] | relative IC50 [1] [µM] | relative IC50 [2] [µM] | relative IC50 [3] [µM] | relative IC50 (DERL-7 (IL-2 2.5 ng/mL)) [µM] | relative IC50 (KAI3 (IL-2 2.5 ng/mL)) [µM] | relative IC50 (KHYG-1 (IL-2 2.5 ng/mL)) [µM] | relative IC50 (NK-92 (IL-2 2.5 ng/mL)) [µM] | relative IC50 (NKL (IL-2 2.5 ng/mL)) [µM] | relative IC50 (YT (IL-2 2.5 ng/mL)) [µM] | relative IC50 (IMC-1 (IL-2 20 ng/mL)) [µM] | relative IC50 [4] [µM]
CC[C@H](NC(=O)[C@H](C)NC)C(=O)N1C[C@@H](O)C[C@H]1Cc1c(-c2[nH]c3cc(F)ccc3c2C[C@@H]2C[C@H](O)CN2C(=O)[C@H](CC)NC(=O)[C@H](C)NC)[nH]c2cc(F)ccc12 [Birinapant] | > 1 | > 1 | 0.311 | 0.338 | 0.278 | – | – | – | – | – | – | – | –
Cc1cnc(Nc2ccc(OCCN3CCCC3)cc2)nc1Nc1cccc(S(=O)(=O)NC(C)(C)C)c1 | 0.534 | 0.876 | 0.262 | 0.715 | – | 0.233 | 0.203 | 0.262 | 1.33 | 0.112 | 0.977 | – | –
O=C(O)C1(C(=O)O)CCC1.[NH2-].[NH2-].[Pt+2] [Carboplatin] | – | – | – | – | 16.6 | – | – | – | – | – | – | 8.07 | 16
Oc1ccc2c(c1)CC[C@H](c1ccccc1)[C@@H]2c1ccc(OCCN2CCCC2)cc1 [Lasofoxifene] | – | – | – | – | > 1 | – | – | – | – | > 1 | – | – | > 1
CCc1cc2c(cc1N1CCC(N3CCOCC3)CC1)C(C)(C)c1[nH]c3cc(C#N)ccc3c1C2=O [Alectinib] | – | > 1 | – | – | – | – | – | – | – | – | – | – | > 1
N#CC[C@H](C1CCCC1)n1cc(-c2ncnc3[nH]ccc23)cn1 [Ruxolitinib] | 0.0851 | 0.0311 | 0.069 | – | 0.0437 | 0.0454 | 0.0171 | 0.0219 | 0.0557 | 0.0158 | 0.142 | 0.78 | 0.0804
COC1=CC(c2cc3ccccc3[nH]2)=N/C1=C\c1[nH]c(C)cc1C [Obatoclax] | – | – | – | 1.88 | – | – | – | – | 0.449 | 0.247 | – | – | –
O=C(Nc1cccc(Nc2ncc(Br)c(NCCc3cnc[nH]3)n2)c1)N1CCCC1 [BX-912] | 1.85 | 0.482 | 1.27 | – | 1.17 | 1.06 | 0.474 | 0.507 | 1.17 | 1.01 | 1.51 | 0.735 | 1.42
CNC(=O)c1cc(Oc2ccc(NC(=O)Nc3ccc(Cl)c(C(F)(F)F)c3)c(F)c2)ccn1 [Regorafenib] | 1.62 | 0.0867 | 3.02 | 1.94 | 1.75 | 1.19 | 3.36 | 2.13 | 1.04 | 1.57 | 1.66 | – | –
Nc1nc2[nH]cnc2c(=S)[nH]1 [Thioguanine] | 0.296 | 0.938 | 2.1 | – | 1.9 | 2.35 | 1.78 | 0.322 | 0.742 | 1.44 | 0.383 | 1.3 | –
C[C@@]1(C(=O)Nc2ccc(F)nc2)CCCN1c1nc(Nc2cc(C3CC3)n[nH]2)c2cccn2n1 | 0.412 | 0.63 | – | 3.42 | – | 0.29 | – | 1.15 | 0.617 | – | 0.904 | 2.85 | –
Nc1nc(F)nc2c1ncn2[C@@H]1O[C@H](CO)[C@@H](O)[C@@H]1O [Fludarabine] | – | – | 0.996 | 0.491 | 0.957 | 3.72 | 2.25 | 2.63 | 1.56 | 0.895 | – | 3.13 | 1.36
Cn1cc(-c2ccc3nnc(C(F)(F)c4ccc5ncccc5c4)n3n2)cn1 | – | – | – | > 10 | – | – | – | – | – | – | – | – | –
CNC(=O)c1ccc(-c2cnc3ncc(Cc4ccc5ncccc5c4)n3n2)cc1F [NVP-INC280] | – | – | > 1 | – | – | – | – | – | – | – | – | – | > 1
O=C(Nc1cccnc1)N1CCC(Cc2cccc(Oc3ccc(C(F)(F)F)cn3)c2)CC1 [PF-3845] | 2.04 | – | 2.86 | 3.48 | – | – | – | 2.56 | – | 1.56 | – | – | –
CN1CCC(COc2cnc(-c3cccc(Cn4nc(-c5cccc(C#N)c5)ccc4=O)c3)nc2)CC1 | > 1 | – | – | – | – | – | > 1 | – | – | – | – | > 1 | > 1
Clc1ccc(C(c2ccccc2Cl)C(Cl)Cl)cc1 (stereo not given) [Mitotane] | > 10 | – | – | – | > 10 | – | > 10 | > 10 | > 10 | > 10 | > 10 | > 10 | –
COc1cc(C(=O)O)ccc1NC(=O)[C@@H]1N[C@@H](CC(C)(C)C)[C@](C#N)(c2ccc(Cl)cc2F)[C@H]1c1cccc(Cl)c1F [Idasanutlin] | – | – | – | – | 0.197 | – | – | – | – | – | – | – | 0.265
C=C1C[C@@H]2[C@H](CC[C@]3(C)C(=O)CC[C@@H]23)[C@@]2(C)C=CC(=O)C=C12 [Exemestane] | – | – | – | 3.29 | – | – | – | – | – | – | – | – | –
O=C(Nc1ccc(-c2ccnc(Nc3ccc(N4CCOCC4)cc3)n2)cc1)C1CCCN1 (stereo not given) [XL019] | – | – | 2.22 | 1.38 | 1.51 | 1.37 | 1.66 | 2.49 | – | 0.658 | – | 3.2 | 1.87
C[C@@H](Nc1cc(F)cc(F)c1)c1cc(C(=O)N(C)C)cc2c(=O)cc(N3CCOCC3)oc12 [AZD-8186] | – | – | – | – | – | – | – | – | – | > 1 | – | > 1 | > 1
Nc1ccn([C@@H]2O[C@H](CO)[C@@H](O)[C@@H]2O)c(=O)n1 [Cytarabine] | 0.33 | 0.193 | 1.44 | 1.23 | 1.9 | 0.023 | 0.05 | 0.0273 | 0.096 | 0.0671 | – | 0.0854 | 2.37
COc1ccc(C2=N[C@@H](c3ccc(Cl)cc3)[C@@H](c3ccc(Cl)cc3)N2C(=O)N2CCNC(=O)C2)c(OC(C)C)c1 [Nutlin-3] | 1.09 | 1.01 | 1.49 | 0.442 | 1.96 | 1.47 | 0.731 | – | – | – | 1.44 | – | 2.75
CCc1cncnc1N1CCN(Cc2nc3ccc(C(F)(F)F)cc3[nH]2)CC1 | – | – | 1.79 | 1.82 | – | – | – | – | 1.46 | 1.84 | – | 2.14 | –
CC[C@@]1(O)C(=O)OCc2c1cc1n(c2=O)Cc2cc3ccccc3nc2-1 [Camptothecin] | 0.00356 | 0.0031 | – | – | 0.547 | 0.00921 | 0.00088 | 0.00495 | 0.00592 | 0.00147 | 0.0184 | 0.0142 | 0.278
CN1CCN(c2ccc3nc(-c4c(N)c5c(F)cccc5[nH]c4=O)[nH]c3c2)CC1 [Dovitinib] | – | > 10 | – | 1.86 | – | – | – | – | – | 1.9 | – | > 10 | –
COc1cc(C(=O)O)ccc1NC(=O)[C@@H]1N[C@@H](CC(C)(C)C)[C@](C#N)(c2ccc(Cl)cc2F)[C@H]1c1cccc(Cl)c1F [RG7388] | 0.0863 | 0.0302 | 0.132 | 0.0297 | – | 0.097 | 0.0391 | 3.56 | 2.12 | 2.45 | 0.209 | – | –
Nc1cc(C(F)(F)F)c(-c2cc(N3CCOCC3)nc(N3CCOCC3)n2)cn1 [Buparlisib] | 0.52 | 0.0429 | – | – | – | 1.07 | 0.887 | 0.781 | 0.734 | 0.269 | 1.21 | 3.9 | –
